{"source": "patent US12187683B2", "about": "“Benzoindazolone compound and intermediate thereof” (LMITO THERAPEUTICS INC., priority 2019, dated 2025)"}
{"target": "NQO1 (Homo sapiens, UniProt P15559)", "sequence (P15559 whole entry, species assumed)": "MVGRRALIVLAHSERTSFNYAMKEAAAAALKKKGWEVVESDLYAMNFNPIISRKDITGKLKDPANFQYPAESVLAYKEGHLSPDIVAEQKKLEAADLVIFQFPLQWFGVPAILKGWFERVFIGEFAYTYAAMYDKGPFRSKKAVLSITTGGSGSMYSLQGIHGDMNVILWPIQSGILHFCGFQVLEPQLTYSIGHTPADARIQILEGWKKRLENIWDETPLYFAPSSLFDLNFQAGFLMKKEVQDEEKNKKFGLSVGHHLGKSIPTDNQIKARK", "assay": "In vitro NQO1 enzyme activity assay (cytochrome C reduction, absorbance at 550 nm)", "assay_type": "biochemical", "conditions": "Table 1; NQO1 2 ng, Compound 5 μM; control 196", "method": "(§1) In order to evaluate the activity of synthesized compound in NQO1, the experiments were conducted as follows:\n(§2) The synthesized compound was dissolved in DMSO to make a 10 mM stock solution, which was further diluted with DMSO to 250 μM so as to prepare a working solution. For experimental groups, the working solution of the compound was added to an enzyme reaction solution in which 50 μL of 1.54 mM Cytochrome C solution was added to 900 μL of 50 mM Tris-HCl (pH7.5) containing 0.14% BSA. For negative control groups, DMSO not containing the compound of the invention was added to the enzyme reaction solution as above. For each experimental and control group, 20 μL of 100 ng/mL NQO1 protein was added. Next, 10 μL of 20 mM NADH was added to bring up the volume to 1 mL. The change of absorbance was measured at 550 nm for 10 minutes using 1 mL cuvette. The kinetics of reaction was measured with the increase of absorbance as the cytochrome C was reduced at 550 nm over 10 minutes. The activity of NQO1 was measured by the amount of cytochrome C that is being reduced (nmol cytochrome C that was reduced/min/ug NQO1 protein).\n(§3) Absorption coefficient of Cytochrome C: 21.1 (μmol/mL)^−1 cm^−1\n(§4) Equipment=Cary 100 UV-Vis Spectrophotometer"}
{"smiles": "O=C1C(=O)c2c(n(-c3ccccc3)[nH]c2=O)-c2ccccc21", "note": "[Compound 1, 1-phenyl-1H-benzo[g]indazol-3,4,5(2H)-trione]", "NQO1 activity (nmol of reduced Cytochrome C/min/μg NQO1 protein)": "180 nmol of reduced Cytochrome C/min/μg NQO1 protein"}
{"smiles": "CC(C)n1c(=O)c2c(n1C)-c1ccccc1C(=O)C2=O", "note": "[Compound 3, 2-isopropyl-1-methyl-1H-benzo[g]indazol-3,4,5(2H)-trione]", "NQO1 activity (nmol of reduced Cytochrome C/min/μg NQO1 protein)": "3066 nmol of reduced Cytochrome C/min/μg NQO1 protein"}
{"smiles": "Cn1c(=O)c2c(n1-c1ccccc1)-c1ccccc1C(=O)C2=O", "note": "[Compound 5, 2-methyl-1-phenyl-1H-benzo[g]indazol-3,4,5(2H)-trione]", "NQO1 activity (nmol of reduced Cytochrome C/min/μg NQO1 protein)": "2602 nmol of reduced Cytochrome C/min/μg NQO1 protein"}
{"smiles": "COc1nn(-c2ccccc2)c2c1C(=O)C(=O)c1ccccc1-2", "note": "[Compound 6, 3-methoxy-1-phenyl-1H-benzo[g]indazol-4,5-dione]", "NQO1 activity (nmol of reduced Cytochrome C/min/μg NQO1 protein)": "7706 nmol of reduced Cytochrome C/min/μg NQO1 protein"}
{"target": "NQO1 (Homo sapiens, UniProt P15559)", "assay": "In vitro NQO1 enzyme activity assay (cytochrome C reduction, absorbance at 550 nm)", "assay_type": "biochemical", "conditions": "Table 2; NQO1 2 ng, Compound 0.2 μM; control 96", "method": "as §1, §2, §3, §4"}
{"smiles": "CC(C)Oc1nn(-c2ccccc2)c2c1C(=O)C(=O)c1ccccc1-2", "note": "[Compound 2, 3-isopropoxy-1-phenyl-1H-benzo[g]indazol-4,5-dione]", "NQO1 activity (nmol of reduced Cytochrome C/min/μg NQO1 protein)": "3531 nmol of reduced Cytochrome C/min/μg NQO1 protein"}
{"smiles": "COc1nn(-c2ccccc2)c2c1C(=O)C(=O)c1ccccc1-2", "note": "[Compound 6, 3-methoxy-1-phenyl-1H-benzo[g]indazol-4,5-dione]", "NQO1 activity (nmol of reduced Cytochrome C/min/μg NQO1 protein)": "3782 nmol of reduced Cytochrome C/min/μg NQO1 protein"}
{"smiles": "CCn1c(=O)c2c(n1-c1ccccc1)-c1ccccc1C(=O)C2=O", "note": "[Compound 7, 2-ethyl-1-phenyl-1H-benzo[g]indazol-3,4,5(2H)-trione]", "NQO1 activity (nmol of reduced Cytochrome C/min/μg NQO1 protein)": "2246 nmol of reduced Cytochrome C/min/μg NQO1 protein"}
{"smiles": "CCOc1nn(-c2ccccc2)c2c1C(=O)C(=O)c1ccccc1-2", "note": "[Compound 8, 3-ethoxy-1-phenyl-1H-benzo[g]indazol-4,5-dione]", "NQO1 activity (nmol of reduced Cytochrome C/min/μg NQO1 protein)": "3768 nmol of reduced Cytochrome C/min/μg NQO1 protein"}
{"smiles": "CC(C)Cn1c(=O)c2c(n1-c1ccccc1)-c1ccccc1C(=O)C2=O", "note": "[Compound 9, 2-isobutyl-1-phenyl-1H-benzo[g]indazol-3,4,5(2H)-trione]", "NQO1 activity (nmol of reduced Cytochrome C/min/μg NQO1 protein)": "2474 nmol of reduced Cytochrome C/min/μg NQO1 protein"}
{"smiles": "CC(C)COc1nn(-c2ccccc2)c2c1C(=O)C(=O)c1ccccc1-2", "note": "[Compound 10, 3-isobutoxy-1-phenyl-1H-benzo[g]indazol-4,5-dione]", "NQO1 activity (nmol of reduced Cytochrome C/min/μg NQO1 protein)": "3455 nmol of reduced Cytochrome C/min/μg NQO1 protein"}
{"smiles": "CC(C)CCn1c(=O)c2c(n1-c1ccccc1)-c1ccccc1C(=O)C2=O", "note": "[Compound 11, 2-isopentyl-1-phenyl-1H-benzo[g]indazol-3,4,5(2H)-trione]", "NQO1 activity (nmol of reduced Cytochrome C/min/μg NQO1 protein)": "2839 nmol of reduced Cytochrome C/min/μg NQO1 protein"}
{"smiles": "CC(C)CCOc1nn(-c2ccccc2)c2c1C(=O)C(=O)c1ccccc1-2", "note": "[Compound 12, 3-(isopentyloxy)-1-phenyl-1H-benzo[g]indazol-4,5-dione]", "NQO1 activity (nmol of reduced Cytochrome C/min/μg NQO1 protein)": "2981 nmol of reduced Cytochrome C/min/μg NQO1 protein"}
{"smiles": "CC(C)n1c(=O)c2c(n1-c1ccccc1)-c1ccccc1C(=O)C2=O", "note": "[Compound 13, 2-isopropyl-1-phenyl-1H-benzo[g]indazol-3,4,5(2H)-trione]", "NQO1 activity (nmol of reduced Cytochrome C/min/μg NQO1 protein)": "2137 nmol of reduced Cytochrome C/min/μg NQO1 protein"}
{"smiles": "CC(C)n1c2c(c(=O)n1C)C(=O)C(=O)c1ccccc1-2", "note": "[Compound 16, 1-isopropyl-2-methyl-1H-benzo[g]indazol-3,4,5(2H)-trione]", "NQO1 activity (nmol of reduced Cytochrome C/min/μg NQO1 protein)": "4441 nmol of reduced Cytochrome C/min/μg NQO1 protein"}
{"smiles": "COc1nn(-c2ccc(C(F)(F)F)cc2)c2c1C(=O)C(=O)c1ccccc1-2", "note": "[Compound 18, 3-methoxy-1-(4-(trifluoromethyl)phenyl)-1H-benzo[g]indazol-4,5-dione]", "NQO1 activity (nmol of reduced Cytochrome C/min/μg NQO1 protein)": "4232 nmol of reduced Cytochrome C/min/μg NQO1 protein"}
{"smiles": "COc1nn(-c2ccc(F)cc2)c2c1C(=O)C(=O)c1ccccc1-2", "note": "[Compound 19, 1-(4-fluorophenyl)-3-methoxy-1H-benzo[g]indazol-4,5-dione]", "NQO1 activity (nmol of reduced Cytochrome C/min/μg NQO1 protein)": "4303 nmol of reduced Cytochrome C/min/μg NQO1 protein"}
{"target": "NQO1 (Homo sapiens, UniProt P15559)", "assay": "In vitro NQO1 enzyme activity assay (cytochrome C reduction, absorbance at 550 nm)", "assay_type": "biochemical", "conditions": "Table 3; NQO1 2 ng, Compound 0.2 μM; control 74", "method": "as §1, §2, §3, §4"}
{"smiles": "COc1nn(-c2ccccc2)c2c1C(=O)C(=O)c1ccccc1-2", "note": "[Compound 6, 3-methoxy-1-phenyl-1H-benzo[g]indazol-4,5-dione]", "NQO1 activity (nmol of reduced Cytochrome C/min/μg NQO1 protein)": "2905 nmol of reduced Cytochrome C/min/μg NQO1 protein"}
{"smiles": "COc1nn(C(C)C)c2c1C(=O)C(=O)c1ccccc1-2", "note": "[Compound 17, 1-isopropyl-3-methoxy-1H-benzo[g]indazol-4,5-dione]", "NQO1 activity (nmol of reduced Cytochrome C/min/μg NQO1 protein)": "4488 nmol of reduced Cytochrome C/min/μg NQO1 protein"}
{"smiles": "Cn1c2c(c(=O)n1-c1ccccc1)C(=O)C(=O)c1ccccc1-2", "note": "[Compound 20, 1-methyl-2-phenyl-1H-benzo[g]indazol-3,4,5(2H)-trione]", "NQO1 activity (nmol of reduced Cytochrome C/min/μg NQO1 protein)": "436 nmol of reduced Cytochrome C/min/μg NQO1 protein"}
{"smiles": "Cn1c(=O)c2c(n1-c1ccccc1)-c1ccc(F)cc1C(=O)C2=O", "note": "[Compound 21, 7-fluoro-2-methyl-1-phenyl-1H-benzo[g]indazol-3,4,5(2H)-trione]", "NQO1 activity (nmol of reduced Cytochrome C/min/μg NQO1 protein)": "1095 nmol of reduced Cytochrome C/min/μg NQO1 protein"}
{"smiles": "COc1nn(-c2ccccc2)c2c1C(=O)C(=O)c1cc(F)ccc1-2", "note": "[Compound 22, 7-fluoro-3-methoxy-1-phenyl-1H-benzo[g]indazol-4,5-dione]", "NQO1 activity (nmol of reduced Cytochrome C/min/μg NQO1 protein)": "5360 nmol of reduced Cytochrome C/min/μg NQO1 protein"}
{"target": "NQO1 (Homo sapiens, UniProt P15559)", "assay": "In vitro NQO1 enzyme activity assay (cytochrome C reduction, absorbance at 550 nm)", "assay_type": "biochemical", "conditions": "Table 4; NQO1 2 ng, Compound 0.2 μM; control 10", "method": "as §1, §2, §3, §4"}
{"smiles": "COc1nn(-c2ccccc2)c2c1C(=O)C(=O)c1ccccc1-2", "note": "[Compound 6, 3-methoxy-1-phenyl-1H-benzo[g]indazol-4,5-dione]", "NQO1 activity (nmol of reduced Cytochrome C/min/μg NQO1 protein)": "3261 nmol of reduced Cytochrome C/min/μg NQO1 protein"}
{"smiles": "COc1nn(-c2ccccc2)c2c1C(=O)C(=O)c1cc([N+](=O)[O-])ccc1-2", "note": "[Compound 23, 3-methoxy-7-nitro-1-phenyl-1H-benzo[g]indazol-4,5-dione]", "NQO1 activity (nmol of reduced Cytochrome C/min/μg NQO1 protein)": "393 nmol of reduced Cytochrome C/min/μg NQO1 protein"}
{"smiles": "COc1nn(-c2ccccc2)c2c1C(=O)C(=O)c1cc(N)ccc1-2", "note": "[Compound 24, 7-amino-3-methoxy-1-phenyl-1H-benzo[g]indazol-4,5-dione]", "NQO1 activity (nmol of reduced Cytochrome C/min/μg NQO1 protein)": "3739 nmol of reduced Cytochrome C/min/μg NQO1 protein"}
{"smiles": "COc1nn(-c2ccccc2)c2c1C(=O)C(=O)c1cc(Br)ccc1-2", "note": "[Compound 25, 7-bromo-3-methoxy-1-phenyl-1H-benzo[g]indazol-4,5-dione]", "NQO1 activity (nmol of reduced Cytochrome C/min/μg NQO1 protein)": "1445 nmol of reduced Cytochrome C/min/μg NQO1 protein"}
